Data on six compounds can be found in US5283331A, “2-halogeno-oxetanocin A and phosphoric ester thereof” (Nippon Kayaku Kabushiki Kaisha, priority 1990, dated 1994).

SMILES strings stand for the structures. In brackets after ≈: the same amount, converted by molar mass.

In one data set the test system is HIV. Put plainly: Anti-HIV activity in MT-4 cells (viral antigen expression, fluorescent antibody method). The class given is cell-based. As to the method: Anti-HIV activity (anti-Human Immunodeficiency Virus activity) was measured in the following manner. Thus, about 100,000 cells/ml of MT-4 cells were placed in a 24-well tray, and 100 μl of a solution containing a predetermined quantity of a compound of this invention was added thereto. After culturing it at 37° C. for 2 hours in a 5% (v/v) carbon dioxide incubator, 2.5×10^5 infection units of HIV was added and cultured for 4 days. Then, a portion of the culture fluid was applied onto a slide glass and immobilized with acetone, after which expression of the viral antigen was tested according to the fluorescent antibody method. As the primary antibody of the fluorescent antibody method, a serum of AIDS patient was used. As the secondary antibody, FITC-labelled anti-human IgG was used.
The test were conducted in a comparative manner, using oxetanocin A as a control substance for each of Experiment 1 and 2.

A short description of data set [1]: Stability to adenosine deaminase (residual percentage by HPLC). The class given is in vitro ADME, young calf. To be noted: bovine, pH 6.8, 37° C., 5 units adenosine deaminase; for remaining at 0.5 h: 30 min; for remaining at 1 h: 60 min; for remaining at 2 h: 120 min. On the procedure:
(§1) Sample (0.05 ml) was dissolved into 20 ml of 0.1M phosphate buffer (pH 6.8), and 5 units of adenosine deaminase originated from young calf intestinal mucous membrane (SIGMA Product No. A-1155) was added. While keeping the resulting mixture at a constant temperature of 37° C., its 1 ml portion was sampled out at predetermined intervals. After adding 1 μmole of coformycin and 10-hold diluting the mixture with water, residual percentage of the sample was determined by reverse phase high performance liquid chromatography (column: Senshu Pak ODS-5121-N, 6.phi.×150 mm; eluent: 0.1M citrate buffer-acetonitrile-methanol (50:2:1); flow rate: 1.8 ml/min.; detection: UV detector, 254 nm).

For another data set, the system named is adenosine deaminase. The description is as above. The note with it: 0 min; pH 6.8, 37° C., 5 units adenosine deaminase. The class given is in vitro ADME, young calf. On the procedure:
as §1

In data set [2] the test system is cytomegalovirus (A0169 strain). As to the kind of experiment: Anti-cytomegalovirus activity (plaque reduction in human embryo fibroblast). The class given is cell-based. To be noted: for EC50: Human betaherpesvirus 5, 240 h, plaque number, human embryo fibroblast, 10 days, 37° C., read-out: Anti-cytomegalovirus activity ED50 (50% inhibitory value). On the procedure:
Anti-cytomegalovirus activity was measured in the following manner. Thus, a 35 mm dish having a single layer of human embryo fibroblast was infected with 100 PFU (Plaque Forming Units) of cytomegalovirus (A0169 strain). After adsorption for one hour, it was covered with a layer of a medium [0.5% agarose and 2% fetal calf serum] containing a varied concentration of a compound of this invention. After culturing it for 10 days at 37° C. in a 5% (v/v) carbon dioxide incubator, the number of plaques formed was measured.

The test system of the next data set is virus. The note with it: prior art: Journal of Antibiotics 39, 1623-25 (1986), EP-A2-0182315; cited from earlier work.

As for `Nc1nc(F)nc2c1ncn2[C@@H]1O[C@H](CO)[C@H]1CO` [Compound No. 1, 2-Fluoro-oxetanocin A], the “activity against HIV (in words)” value in the data set on HIV is recorded as “excellent activities against HIV”. For the same compound, in data set [1], the amount remaining at 10 min was 100%, the amount remaining at 0.5 h was 100%, the share remaining at 1 h came out at 100% and the share remaining at 2 h came out at 100%. Moreover, the “Residual percentage (%)” value in the data set on adenosine deaminase was determined as 100%. In data set [2], the “activity against cytomegalovirus (in words)” value is recorded as “excellent activity against cytomegalovirus” and the EC50 worked out at 0.3 µg/mL (≈ 1.11 µM).

With `Nc1nc(Cl)nc2c1ncn2[C@@H]1O[C@H](CO)[C@H]1CO` [Compound No. 2, 2-Chloro-oxetanocin A], the “activity against HIV (in words)” value with HIV is “excellent activities against HIV”. Moreover, in data set [1], the amount remaining at 10 min worked out at 100%, the amount remaining at 0.5 h came out at 100%, the amount remaining at 1 h is 100% and the fraction remaining at 2 h came to 100%. The “Residual percentage (%)” value with adenosine deaminase is 100%.

Regarding `Nc1nc(F)nc2c1ncn2[C@@H]1O[C@H](COP(=O)(O)O)[C@H]1CO` [Compound No. 5, 2-Fluoro-oxetanocin A 4'-phosphate], in data set [1], the amount remaining at 10 min worked out at 100%, the amount remaining at 0.5 h stood at 100%, the fraction remaining at 1 h is 100% and the fraction remaining at 2 h came out at 100%. In addition, in the data set with adenosine deaminase, the “Residual percentage (%)” value turned out to be 100%.

Take `Nc1nc(Cl)nc2c1ncn2[C@@H]1O[C@H](COP(=O)(O)O)[C@H]1CO` [Compound No. 6, 2-Chloro-oxetanocin A 4'-phosphate]: the “activity against HIV (in words)” value in the data set on HIV is “excellent activities against HIV”. In data set [1], the amount remaining at 10 min was 100%, the amount remaining at 0.5 h was 100%, the share remaining at 1 h was determined as 100% and the amount remaining at 2 h came to 100%. In addition, in the data set on adenosine deaminase, the “Residual percentage (%)” value is 100%.

In data set [1], `Nc1ncnc2c1ncn2[C@@H]1O[C@H](CO)[C@H]1CO` [Oxetanocin A] came in with an amount remaining at 10 min of 85%, an amount remaining at 0.5 h of 28%, a share remaining at 1 h of 0% and a share remaining at 2 h of 0%. Besides, the “Residual percentage (%)” value with adenosine deaminase was 100%. In data set [2], the EC50 amounted to 13 µg/mL (≈ 51.7 µM).

`Nc1ncnc2c1ncn2[C@@H]1O[C@H](CO)[C@H]1CO` [Oxetanocin]: the “antiviral activity (in words)” value with virus is given as “having an antiviral activity”.

For orientation: share remaining means the share of the starting amount still present when the sample was taken.
